Values of other authors in patent EP0315648B1 (THE UPJOHN COMPANY, priority 1986, dated 1988).

Details: Hildebrand solubility coefficient of the solvent (scale of Vaughn)

SMILES | HSC
CCCCCCCC/C=C\CCCCCCCCO [oleyl alcohol] | 9.8
CC(O)CO (centres unmarked) [propylene glycol] | 14
